US20220354119A1, “COMPOSITION OF A RHEOLOGY MODIFIER AND DIHALOHYDANTOIN” (Rohm and Haas Company, priority 2019, published 2022)
“Also recorded” adds a separate entry of the source. Structures can show the parent of a compound that is named as a salt.

Key:
[1] = Heat age stability of HEUR-biocide formulation (appearance after heat aging); format: physicochemical; conditions: biocide admixed with HEUR rheology modifier (RM-2020E or RM-8W); oven 50° C. for 2 weeks
Description: A number of biocides were admixed with ACRYSOL™ RM-2020E Rheology Modifier (RM-2020E, A Trademark of The Dow Chemical Company or Its Affiliates) and ACRYSOL™ RM-8W (RM-8W). In addition to testing biocides admixed with RM-2020E or RM-8W as-delivered, acid was also added to the rheology modifiers to lower the pH to approximately 4.5. Samples prepared with the biocide didecyldimethylammonium chloride were only tested when RM-2020E and RM-8W were prepared with 10-15% surfactant in the composition. The compositions were heat-aged in an oven maintained at 50° C. for 2 weeks. Heating aging was also carried out for RM-2020E in the absence of any biocide. If the composition failed the heat aging test, it was not tested for efficacy.
All heat aged samples were compared against a reference HEUR (RM-2020E or
The pass/fail criterion for biocide efficacy was determined by the formation of less than 1×10^4 colony forming units per mL (CFU/mL) of sample tested.

[2] = test system: pool of 6 different Gram negative and Gram positive bacterial strains; assay: Bacterial challenge test (TAUNOVATE III High Throughput testing system, MPN); format: cell-based; conditions: 30° C., repeated challenges
Description: Efficacy of all biocides were determined as described for 1-bromo-3-chloro-5,5-dimethylhydantion. The only difference was the concentration of the biocide, which is shown as a range in Table 1.
1-Bromo-3-chloro-5,5-dimethylhydantoin (0.5% aqueous solution) was prepared by dispersing Chlorox Pool and Spa (0.25 g in 49.75 g water). Unpreserved RM-2020E thickeners were dosed with biocide and challenge tested with bacteria using the TAUNOVATE℠ III High Throughput testing system. In general, the tested biocides were calibrated for density and prepared at levels 10× higher than the target concentrations using a robotic system. For example, to target 15 ppm and 40 ppm concentrations of 1-bromo-3-chloro-5,5-dimethylhydantoin respectively, 150 ppm and 400 ppm concentrations of 1-bromo-3-chloro-5,5-dimethylhydantoin were prepared by the automated system. […]
The inoculum was prepared by making a 1:1 pool of overnight cultures of 6 different Gram negative and Gram positive bacterial strains, and then diluted 1:20 with tryptic soy broth. […] Three additional challenges were performed 7 d apart with fresh bacterial cultures and growth recovery was assessed 1 and 7 d after inoculation. […]
(TSB) with indicator. […] The MPN was calculated to determine the relative growth scale rating, which is a measure of the passing or failure of the sample for growth. […]

Compound | Sample Appearance after Heat Age testing [1] | Challenge Test ([2]; 400 ppm biocide in HEUR prepared with 10-15% surfactant) | Challenge Test ([2]; 300 ppm biocide in HEUR)
CC1(C)C(=O)N(Cl)C(=O)N1Br [1-bromo-3-chloro-5,5-dimethylhydantoin] | non-degradative; also recorded: unchanged |  | 
CCCCCCCCCC[N+](C)(C)CCCCCCCCCC.[Cl-] [Didecyldimethylammonium chloride] | unchanged | Fail (The pass/fail criterion for biocide efficacy was determined by the formation of less than 1×10^4 colony forming units per mL (CFU/mL) of sample tested) | 
CCCCCCCCCCCCNC(=N)N [Dodecylguanidine Hydrochloride] |  |  | Fail (The pass/fail criterion for biocide efficacy was determined by the formation of less than 1×10^4 colony forming units per mL (CFU/mL) of sample tested)
C/C=C/C=C/C(=O)[O-].[K+] [Potassium sorbate] | Brown |  | 
[Na+].[O-]c1ccccc1-c1ccccc1 [Sodium o-phenylphenolate] | White |  | 
[Na+].[O-][n+]1ccccc1[S-] [Sodium pyrithione] | Bright yellow |  | 
Oc1ccccc1-c1ccccc1 [o-phenylphenol] | White |  | 
Zinc pyrithione | White sediment |  | 
